According to US9181264B2, “Fused heteroaryls and their uses” (Hutchison MediPharma Limited, priority 2011, dated 2015):

The molecules below were run against T1, PI3Kα kinase (Homo sapiens, UniProt P42336) (assay: PI3Ka Transcreener ADP assay (fluorescence polarization)). Settings: 10 μM ATP, 30 μmol/L lipid substrate; read-out: IC50, inhibition of PI3Kα kinase.
T1 construct: purchased Invitrogen PV4788
Assay type: biochemical
Protocol: Fluorescence polarization was used in this assay. The final conditions for kinase assay are 10 μM of ATP, 0.2 ng/μL of PI3Kα kinase, 30 μmol/L of lipid substrate and assay buffer (50 mmol/L of HEPES (pH 7.5), 100 mmol/L of NaCl, 1 mmol/L of EGTA, 3 mmol/L of MgCl2, 1 mmol/L of DTT and 0.03% CHAPS and 2% DMSO).
5 μL of test compounds in 10% DMSO and 10 μL of 0.5 ng/μL PI3K kinase (Invitrogen, PV4788) in assay buffer are put into a 96-well plate (Greiner, Cat. 675076), and then the reaction is started by the addition of 10 μL of 75 μmol/L PIP2, (PS Lipid Substrate Invitrogen, PV5100), and 25 μmol/L ATP mixture. After the mixture is incubated for 60 minutes at room temperature, 25 μL of transcreener Kinase Kit reagent—ADP Detection Mix—(Bellbrook Labs) is added, and the reaction is continued for an additional 1.5 hours. At the end, the plate is read in a Tecan Infinite F500 at excitation of 610 nm and emission of 670 nm.
A standard curve for ADP is obtained in a parallel way by replacing compound and PI3Kα kinase with DMSO and assay buffer, respectively. Different concentration of ADP, 0-10 μM, and ATP, 10-0 μM (ATP+ADP equal to 10 μM) are applied instead of a fixed concentration of ATP in this standard curve assay. Other conditions are the same as described above. The standard curve is plotted using Origin 8.0 software. The inhibition of test compound on ADP production is calculated based on ADP concentration from standard curve. IC50 is obtained using XLfit 2.0 software.

T1 sequence (P42336 whole entry): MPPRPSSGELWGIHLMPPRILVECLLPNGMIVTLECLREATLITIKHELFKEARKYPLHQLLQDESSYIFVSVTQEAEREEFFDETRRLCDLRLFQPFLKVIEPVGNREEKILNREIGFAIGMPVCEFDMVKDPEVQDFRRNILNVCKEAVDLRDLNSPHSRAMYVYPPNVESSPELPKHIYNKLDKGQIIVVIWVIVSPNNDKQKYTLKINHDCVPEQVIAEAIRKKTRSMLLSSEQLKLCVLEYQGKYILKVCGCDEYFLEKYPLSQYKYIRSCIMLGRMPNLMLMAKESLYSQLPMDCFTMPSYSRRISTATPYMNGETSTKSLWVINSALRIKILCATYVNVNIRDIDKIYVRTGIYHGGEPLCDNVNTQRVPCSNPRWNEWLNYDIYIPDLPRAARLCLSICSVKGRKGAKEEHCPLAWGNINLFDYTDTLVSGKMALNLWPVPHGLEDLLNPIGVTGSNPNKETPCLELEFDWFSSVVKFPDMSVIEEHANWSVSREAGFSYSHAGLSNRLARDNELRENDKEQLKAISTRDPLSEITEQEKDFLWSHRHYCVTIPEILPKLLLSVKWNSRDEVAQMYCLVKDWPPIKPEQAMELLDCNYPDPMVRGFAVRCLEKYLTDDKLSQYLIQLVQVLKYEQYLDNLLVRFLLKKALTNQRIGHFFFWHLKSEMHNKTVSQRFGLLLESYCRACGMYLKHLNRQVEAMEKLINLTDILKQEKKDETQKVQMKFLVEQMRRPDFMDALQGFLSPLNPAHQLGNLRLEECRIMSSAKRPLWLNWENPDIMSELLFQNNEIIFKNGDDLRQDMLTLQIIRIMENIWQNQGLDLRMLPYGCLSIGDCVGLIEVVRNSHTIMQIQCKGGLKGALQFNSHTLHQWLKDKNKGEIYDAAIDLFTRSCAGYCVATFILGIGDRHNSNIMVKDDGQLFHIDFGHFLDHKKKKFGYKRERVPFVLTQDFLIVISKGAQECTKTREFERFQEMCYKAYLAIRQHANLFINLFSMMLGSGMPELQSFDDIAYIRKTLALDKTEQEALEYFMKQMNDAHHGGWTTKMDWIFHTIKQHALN
T1 sequence (P27986 whole entry partner): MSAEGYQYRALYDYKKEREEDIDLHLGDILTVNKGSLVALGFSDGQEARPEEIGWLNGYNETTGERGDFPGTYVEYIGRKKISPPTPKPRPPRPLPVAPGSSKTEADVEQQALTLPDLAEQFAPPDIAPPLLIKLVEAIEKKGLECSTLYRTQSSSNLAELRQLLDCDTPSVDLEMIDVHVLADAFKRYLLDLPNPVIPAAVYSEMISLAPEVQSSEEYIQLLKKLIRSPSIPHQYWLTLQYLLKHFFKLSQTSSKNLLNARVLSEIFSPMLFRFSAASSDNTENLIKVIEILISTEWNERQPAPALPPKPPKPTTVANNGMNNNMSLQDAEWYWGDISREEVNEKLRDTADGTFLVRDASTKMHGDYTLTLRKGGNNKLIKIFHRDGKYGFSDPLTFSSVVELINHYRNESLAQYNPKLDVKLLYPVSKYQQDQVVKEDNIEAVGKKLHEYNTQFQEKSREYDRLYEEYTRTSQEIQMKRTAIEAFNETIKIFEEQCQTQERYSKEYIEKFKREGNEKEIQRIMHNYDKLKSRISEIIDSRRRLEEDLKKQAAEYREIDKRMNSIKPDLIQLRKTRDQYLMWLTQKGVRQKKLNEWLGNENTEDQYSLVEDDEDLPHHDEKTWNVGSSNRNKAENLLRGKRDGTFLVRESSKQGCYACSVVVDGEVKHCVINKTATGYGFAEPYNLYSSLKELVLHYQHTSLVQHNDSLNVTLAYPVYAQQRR

Row | IC50 [nM] | Structure (SMILES)
1 | < 100 | CC#CC(=O)N1CCC(n2c(C)nc3cnc4ccc(-c5cnc(N)c(C(F)(F)F)c5)nc4c32)CC1 [Compound 144]
2 | < 100 | C/C=C/C(=O)N1CCC(n2c(C)nc3cnc4ccc(-c5cnc(N)c(C(F)(F)F)c5)nc4c32)CC1 [Compound 145]
3 | < 100 | COc1ncc(-c2ccc3ncc4nnc(C)n4c3c2)cc1NS(C)(=O)=O [Compound 150]
4 | < 100 | COc1ncc(-c2ccc3ncc4nncn4c3c2)cc1NS(=O)(=O)c1ccc(F)cc1F [Compound 161]
5 | < 100 | COc1ncc(-c2ccc3ncc4nnc(C5CC5)n4c3c2)cc1NS(=O)(=O)c1ccc(F)cc1F [Compound 162]
6 | < 100 | COc1ncc(-c2ccc3ncc4n[nH]c(=O)n4c3c2)cc1NS(=O)(=O)c1ccc(F)cc1F [Compound 163]
7 | < 100 | CCS(=O)(=O)Nc1cc(-c2ccc3ncc4nnc(C)n4c3c2)cnc1OC [Compound 164]
8 | < 100 | COc1ncc(-c2ccc3ncc4nnc(C(=O)N5CCCC5)n4c3c2)cc1NS(=O)(=O)C1CC1 [Compound 167]
9 | < 100 | COc1ncc(-c2ccc3ncc4nnc(C(=O)N(C)C)n4c3c2)cc1NS(=O)(=O)C1CC1 [Compound 168]
10 | < 100 | COc1ncc(-c2ccc3ncc4nnc(C(=O)N(C)C)n4c3c2)cc1NS(=O)(=O)c1ccccc1 [Compound 169]
11 | < 100 | COCc1nnc2cnc3ccc(-c4cnc(OC)c(NS(=O)(=O)C5CC5)c4)cc3n12 [Compound 170]
12 | < 100 | COc1ncc(-c2ccc3ncc4nnc(CCN5CCOCC5)n4c3c2)cc1NS(C)(=O)=O [Compound 171]
13 | < 100 | COc1ncc(-c2ccc3ncc4nnc(CN5CCOCC5)n4c3c2)cc1NS(C)(=O)=O [Compound 172]
14 | < 100 | COc1ncc(-c2ccc3ncc4nccn4c3c2)cc1NS(=O)(=O)c1ccc(F)cc1F [Compound 173]
15 | < 100 | COc1ncc(-c2ccc3ncc4nnc(CN5CCCC5)n4c3c2)cc1NS(C)(=O)=O [Compound 174]
16 | < 100 | COc1ncc(-c2ccc3ncc4nnc(CN5CCCC5)n4c3c2)cc1NS(=O)(=O)c1ccccc1 [Compound 175]
17 | < 100 | COc1ncc(-c2ccc3ncc4nccn4c3c2)cc1NS(=O)(=O)C(F)(F)F [Compound 176]
18 | < 100 | COc1ncc(-c2ccc3ncc4ncn(CCN5CCOCC5)c4c3n2)cc1NS(C)(=O)=O [Compound 177]
19 | < 100 | COc1ncc(-c2ccc3ncc4nnc(C)n4c3c2)cc1NS(=O)(=O)c1ccc(C)cc1 [Compound 179, N-(2-methoxy-5-(1-methyl-[1,2,4]triazolo[4,3-a]quinoxalin-8-yl)pyridin-3-yl)-4-methylbenzenesulfonamide]
20 | < 100 | COc1ncc(-c2ccc3ncc4nnc(C)n4c3c2)cc1NS(=O)(=O)c1ccc(F)cc1 [Compound 182]
21 | < 100 | CC(C)(C#N)c1ccc(-n2cnc3nnc4ccc(-c5cnc(N)c(C(F)(F)F)c5)cc4c32)cc1 [Compound 183, 2-(4-(8-(6-amino-5-(trifluoromethyl)pyridin-3-yl)-1H-imidazo[4,5-c]cinnolin-1-yl)phenyl)-2-methylpropanenitrile]
22 | < 100 | Cc1nc2nnc3ccc(-c4cnc(N)c(C(F)(F)F)c4)cc3c2n1-c1ccc(C(C)(C)C#N)cc1 [Compound 184]

More lines, now with the values behind:

Row | Structure (SMILES) | IC50 [nM]
23 | C[C@H](O)C(=O)N1CCC(n2nnc3cnc4ccc(-c5cnc(N)c(C(F)(F)F)c5)nc4c32)CC1 [Compound 1, (S)-1-(4-(8-(6-amino-5-(trifluoromethyl)pyridin-3-yl)-1H-[1,2,3]triazolo[4,5-c][1,5]naphthyridin-1-yl)piperidin-1-yl)-2-hydroxypropan-1-one] | < 100
24 | CCC(=O)N1CCC(n2nnc3cnc4ccc(-c5cnc(N)c(C(F)(F)F)c5)nc4c32)CC1 [Compound 6] | < 100
25 | COc1cc(-c2ccc3ncc4ncn(-c5ccc(C(C)(C)C#N)nc5)c4c3n2)cnc1N [Compound 95] | < 100
26 | Nc1ncc(-c2ccc3ncc4ncn(C5CCN(CC(=O)N6CCOCC6)CC5)c4c3n2)cc1C(F)(F)F [Compound 97] | < 100
27 | COc1cc(-c2ccc3ncc4ncn(C5CCN(CC(=O)N(C)C)CC5)c4c3n2)cnc1OC [Compound 99] | < 100
28 | Cc1ccc(-c2ccc3ncc4ncn(C5CCN(CC(=O)N(C)C)CC5)c4c3n2)cn1 [Compound 100] | < 100
29 | CCNC(=O)N1CCC(n2cnc3cnc4ccc(-c5cnc(N)c(C(F)(F)F)c5)nc4c32)CC1 [Compound 101] | < 100
30 | CC(C)(C#N)c1ccc(-n2cnc3cnc4ccc(-c5cnc(N)c(C(F)(F)F)c5)nc4c32)cc1 [Compound 104] | < 100
31 | CCOc1cc(-c2ccc3ncc4ncn(-c5ccc(C(C)(C)C#N)nc5)c4c3n2)cnc1N [Compound 108] | < 100
32 | Nc1ncc(-c2ccc3ncc4ncn(CCN5CCOCC5)c4c3n2)cc1C(F)(F)F [Compound 109] | < 100
33 | C[C@@H](O)C(=O)N1CCC(n2cnc3cnc4ccc(-c5cnc(N)c(C(F)(F)F)c5)nc4c32)CC1 [Compound 110] | < 100
34 | Nc1ncc(-c2ccc3ncc4ncn(CCN5CCCC5)c4c3n2)cc1C(F)(F)F [Compound 111] | < 100
35 | C#Cc1cc(-c2ccc3ncc4ncn(C5CCN(C(=O)C6CC6)CC5)c4c3n2)cnc1N [Compound 112] | < 100
36 | Cc1ccc(-c2ccc3ncc4ncn(C5CCN(C(=O)[C@H](C)O)CC5)c4c3n2)cn1 [Compound 113] | < 100
37 | Cc1nc2cnc3ccc(-c4cnc(N)c(C(F)(F)F)c4)nc3c2n1C1CCN(CC(=O)N2CCOCC2)CC1 [Compound 124] | < 100
38 | Cc1nc2cnc3ccc(-c4cnc(N)c(C(F)(F)F)c4)nc3c2n1C1CCN(CC(=O)N2CCCC2)CC1 [Compound 125] | < 100

Row | Structure (SMILES) | IC50 [nM]
39 | Cc1nc2cnc3ccc(-c4cnc(N)c(C(F)(F)F)c4)nc3c2n1C1CCN(C(=O)[C@@H](C)O)CC1 [Compound 126] | < 100
40 | Cc1ccc(-c2ccc3ncc4nc(C)n(C5CCN(C(=O)[C@H](C)O)CC5)c4c3n2)cn1 [Compound 127] | < 100
41 | Cc1nc2cnc3ccc(-c4cnc(N)c(C(F)(F)F)c4)nc3c2n1C1CCN(Cc2ccccn2)CC1 [Compound 128] | < 100
42 | COCCN1CCC(n2c(C)nc3cnc4ccc(-c5cnc(N)c(C(F)(F)F)c5)nc4c32)CC1 [Compound 130] | < 100
43 | Cc1nc2cnc3ccc(-c4cnc(N)c(C(F)(F)F)c4)nc3c2n1C1CCN(C(=O)c2ccccn2)CC1 [Compound 132] | < 100
44 | Cc1nc2cnc3ccc(-c4cnc(N)c(C(F)(F)F)c4)nc3c2n1C1CCOCC1 [Compound 133] | < 100
45 | Cc1nc2cnc3ccc(-c4cnc5[nH]ncc5c4)nc3c2n1C1CCOCC1 [Compound 134] | < 100
46 | Cc1nc2cnc3ccc(-c4cnc5[nH]ccc5c4)nc3c2n1C1CCOCC1 [Compound 135] | < 100
47 | Cc1cc(-c2ccc3ncc4nc(C)n(C5CCC(N6CCOCC6)CC5)c4c3n2)cnc1N (stereo not shown) [Compound 136] | < 100
48 | Cc1nc2cnc3ccc(-c4cnc(N)c(C(F)(F)F)c4)nc3c2n1C1CCC(N2CCOCC2)CC1 (stereo not shown) [Compound 137] | < 100
49 | Cc1nc2cnc3ccc(-c4cnc(N)c(C(F)(F)F)c4)nc3c2n1C1CCN(S(C)(=O)=O)CC1 [Compound 138] | < 100
50 | COc1ncc(-c2ccc3ncc4nc(C)n(C5CCN(S(C)(=O)=O)CC5)c4c3n2)cn1 [Compound 139] | < 100
51 | C=CC(=O)N1CCC(n2c(C)nc3cnc4ccc(-c5cnc(N)c(C(F)(F)F)c5)nc4c32)CC1 [Compound 140] | < 100
52 | Cc1nc2cnc3ccc(-c4cnc(N)c(C(F)(F)F)c4)nc3c2n1CCCN1CCOCC1 [Compound 142] | < 100
53 | COc1ncc(-c2ccc3ncc4nc(C)n(C5CCN(C(=O)C6CC6)CC5)c4c3n2)cc1C(F)(F)F [Compound 143] | < 100

Each molecule was assayed against T2, mTOR kinase (Homo sapiens, UniProt P42345) (assay: mTOR LanthaScreen TR-FRET assay). Settings: 10 μmol/L ATP, GFP-4EBP1 substrate; read-out: IC50, inhibition of mTOR.
T2 construct: purchased Invitrogen PV4753
Assay type: biochemical
Protocol: Compounds are tested using LanthaScreen TR-FRET Assay. The kinase reaction is completed in 384-well black plate (Corning, Cat. 3676). The final conditions for kinase assay are: 10 μmol/L of ATP, 0.2 ng/μL of mTOR kinase, 0.4 μmol/L of GFP-4EBP1 substrate and assay buffer (50 mmol/L of HEPES, pH 7.5, 0.01% of Tween 20, 1 mmol/L of EGTA, 10 mmol/L of MnCl2, 2 mmol/L of DTT and 1% DMSO).
To each well, 2.5 μL of test compounds in 4% DMSO and 2.5 μL of 0.8 ng/μL mTOR kinase (Invitrogen, PV4753) diluted in assay buffer are added. The reaction is initiated by the addition of 5 μL mixture of 0.8 μmol/L GFP-4EBP1 Substrate (Invitorgen, PV4759) and 20 μmol/L ATP mixtures. The mixture is incubated at room temperature for 60 minutes. 10 μL of 20 mmol/L EDTA and 4 nmol/L Tb-anti-p4EBP1 [pThr46] antibody (Invitrogen, PV4755) diluted in TR-FRET dilution buffer are added and incubated for an additional 1 hour. The plate is then read in a BioTek Synergy2 Reader at excitation of 340 nm and emission of 490 nm and 528 nm.
The inhibition of test compound is calculated based on the ratio of 528 nm/490 nm. IC50 of test compound is obtained using XLfit 2.0 software.

T2 sequence (P42345 1360-2549 limits assumed): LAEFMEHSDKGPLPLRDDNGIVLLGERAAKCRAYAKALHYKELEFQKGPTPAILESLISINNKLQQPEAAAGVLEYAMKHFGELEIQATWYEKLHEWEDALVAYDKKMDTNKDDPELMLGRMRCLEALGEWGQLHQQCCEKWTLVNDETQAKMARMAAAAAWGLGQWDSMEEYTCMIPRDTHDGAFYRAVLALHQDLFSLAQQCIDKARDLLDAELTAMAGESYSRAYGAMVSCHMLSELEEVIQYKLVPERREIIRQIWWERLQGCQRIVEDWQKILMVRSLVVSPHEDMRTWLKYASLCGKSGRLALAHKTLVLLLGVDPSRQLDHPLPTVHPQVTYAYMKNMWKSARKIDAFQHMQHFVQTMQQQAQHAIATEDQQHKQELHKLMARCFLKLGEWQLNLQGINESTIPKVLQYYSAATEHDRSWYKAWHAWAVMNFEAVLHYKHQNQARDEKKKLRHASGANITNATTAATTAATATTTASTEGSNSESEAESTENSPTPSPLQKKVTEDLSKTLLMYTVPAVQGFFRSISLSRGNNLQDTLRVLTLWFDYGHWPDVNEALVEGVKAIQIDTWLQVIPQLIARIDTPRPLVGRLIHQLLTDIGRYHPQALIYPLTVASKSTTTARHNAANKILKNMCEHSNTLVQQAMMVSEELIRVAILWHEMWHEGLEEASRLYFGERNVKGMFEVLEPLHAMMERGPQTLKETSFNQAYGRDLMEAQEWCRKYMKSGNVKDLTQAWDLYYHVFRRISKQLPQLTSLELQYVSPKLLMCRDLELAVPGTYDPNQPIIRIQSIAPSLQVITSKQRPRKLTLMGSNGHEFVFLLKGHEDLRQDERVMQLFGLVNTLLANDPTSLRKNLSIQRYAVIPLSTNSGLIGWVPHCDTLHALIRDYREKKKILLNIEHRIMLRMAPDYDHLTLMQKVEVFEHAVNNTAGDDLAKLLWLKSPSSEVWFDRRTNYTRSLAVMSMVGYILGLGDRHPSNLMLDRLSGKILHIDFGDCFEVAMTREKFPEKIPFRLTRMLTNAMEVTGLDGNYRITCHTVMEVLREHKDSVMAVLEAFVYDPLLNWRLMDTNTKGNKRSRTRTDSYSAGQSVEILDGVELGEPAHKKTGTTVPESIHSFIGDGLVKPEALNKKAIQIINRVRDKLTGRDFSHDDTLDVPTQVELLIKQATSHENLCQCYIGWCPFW

Row | IC50 [nM] | Structure (SMILES)
54 | < 100 | C[C@H](O)C(=O)N1CCC(n2nnc3cnc4ccc(-c5cnc(N)c(C(F)(F)F)c5)nc4c32)CC1 [Compound 1, (S)-1-(4-(8-(6-amino-5-(trifluoromethyl)pyridin-3-yl)-1H-[1,2,3]triazolo[4,5-c][1,5]naphthyridin-1-yl)piperidin-1-yl)-2-hydroxypropan-1-one]
55 | < 100 | CCC(=O)N1CCC(n2nnc3cnc4ccc(-c5cnc(N)c(C(F)(F)F)c5)nc4c32)CC1 [Compound 6]
